Measurements: ChEMBL document CHEMBL4007454 (J Med Chem, 2017)

What was measured:
[1] = target: T1, Leucine-rich repeat serine/threonine-protein kinase 2 (Homo sapiens, UniProt Q5S007, G2019S); test: Inhibition of recombinant human GST-tagged LRRK2 (970 to 2527 residues) G2019S mutant expressed in baculovirus using fluorescein-ERM as substrate preincubated for 30 mins followed by substrate addition measured after 1 hr by TR-FRET assay
[2] = Efflux ratio of permeability […] in pig LLC-PK1 cells expressing human MDR1; type: ADME, cell-based, Sus scrofa
[3] = Efflux ratio of permeability […] in pig LLC-PK1 cells expressing rat MDR1; type: ADME, cell-based, Sus scrofa
MDR1 (human) = test: Apparent permeability in pig LLC-PK1 cells expressing human MDR1; type: ADME, cell-based, Sus scrofa
[4] = Intrinsic clearance in human hepatocytes assessed per million cells at 1 uM after 180 mins by LC-MS/MS analysis; type: ADME, cell-based, Hepatocyte; details: read-out: CLH
[5] = Intrinsic clearance in rat hepatocytes assessed per million cells at 1 uM after 180 mins by LC-MS/MS analysis; type: ADME, cell-based, Hepatocyte; details: read-out: CLH
[6] = target: T1, Leucine-rich repeat serine/threonine-protein kinase 2; test: Inhibition LRRK2 G2019S mutant Ser935 phosphorylation in human SH-SY5Y cells after 90 mins by Western blot analysis; type: cell-based
Cerebrospinal fluid = test: Drug level in rat Cerebrospinal fluid at 5 mg/kg, ip; type: ADME, organism-based; details: in vivo, read-out: Drug uptake
Plasma = test: Unbound plasma concentration in rat at 5 mg/kg, ip; type: ADME, organism-based; details: in vivo
[7] = target: Leucine-rich repeat serine/threonine-protein kinase 2 (Homo sapiens, UniProt Q5S007); test: Inhibition of wild type human recombinant LRRK2 expressed in baculovirus using fluorescein-ERM as substrate preincubated for 30 mins followed by substrate addition measured after 1 hr by TR-FRET assay
[8] = target: T1, Leucine-rich repeat serine/threonine-protein kinase 2; test: Inhibition of recombinant human GST-tagged LRRK2 (970 to 2527 residues) G2019S mutant expressed in baculovirus using fluorescein-ERM as substrate preincubated for 30 mins followed by substrate addition measured after 1 hr in presence of 5 mM ATP by TR-FRET assay
[9] = target: T2, Dual specificity protein kinase TTK (Homo sapiens) (UniProt P33981); test: Inhibition of recombinant human full length GST-tagged TTK expressed in baculovirus; details: concentration not given here
T2 sequence (whole entry): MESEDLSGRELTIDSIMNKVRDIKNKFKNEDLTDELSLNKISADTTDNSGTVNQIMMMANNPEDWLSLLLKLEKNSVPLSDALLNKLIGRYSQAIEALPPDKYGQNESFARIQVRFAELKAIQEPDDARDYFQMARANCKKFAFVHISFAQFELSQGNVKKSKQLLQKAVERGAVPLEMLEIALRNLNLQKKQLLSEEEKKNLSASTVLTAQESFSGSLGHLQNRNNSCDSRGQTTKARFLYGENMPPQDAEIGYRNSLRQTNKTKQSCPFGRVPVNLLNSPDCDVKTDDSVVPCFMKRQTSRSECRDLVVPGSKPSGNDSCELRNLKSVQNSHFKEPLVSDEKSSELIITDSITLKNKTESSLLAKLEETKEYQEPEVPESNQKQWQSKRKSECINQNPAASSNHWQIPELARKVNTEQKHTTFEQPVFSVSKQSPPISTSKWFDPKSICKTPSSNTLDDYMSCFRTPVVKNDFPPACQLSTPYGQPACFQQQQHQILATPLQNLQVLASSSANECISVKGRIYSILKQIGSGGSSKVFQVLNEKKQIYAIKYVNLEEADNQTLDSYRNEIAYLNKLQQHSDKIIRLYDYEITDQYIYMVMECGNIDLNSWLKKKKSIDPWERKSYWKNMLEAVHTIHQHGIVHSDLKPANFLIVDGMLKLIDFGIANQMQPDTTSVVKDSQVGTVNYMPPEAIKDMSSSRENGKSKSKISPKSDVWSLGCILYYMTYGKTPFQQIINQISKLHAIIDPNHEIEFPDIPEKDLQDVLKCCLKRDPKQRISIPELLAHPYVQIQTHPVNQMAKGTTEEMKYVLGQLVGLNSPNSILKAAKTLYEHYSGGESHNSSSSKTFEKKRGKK

[10] = target: Mitogen-activated protein kinase 1 (Homo sapiens) (UniProt P28482); test: Inhibition of recombinant human full length GST-tagged ERK2 expressed in Escherichia coli at 1 uM
[11] = AUC (0 to 8 hrs) in Han-Wistar rat at 2 mg/kg, iv measured after 2 to 480 mins by LC-MS/MS analysis; type: ADME, organism-based; set-up: time < 8 hr, dose 2 mg/kg, route intravenous; details: in vivo
[12] = Half life in Han-Wistar rat at 2 mg/kg, iv measured after 2 to 480 mins by LC-MS/MS analysis; type: ADME, organism-based; details: in vivo

T1 sequence (Q5S007 whole entry G2019S, the tested form may be a part): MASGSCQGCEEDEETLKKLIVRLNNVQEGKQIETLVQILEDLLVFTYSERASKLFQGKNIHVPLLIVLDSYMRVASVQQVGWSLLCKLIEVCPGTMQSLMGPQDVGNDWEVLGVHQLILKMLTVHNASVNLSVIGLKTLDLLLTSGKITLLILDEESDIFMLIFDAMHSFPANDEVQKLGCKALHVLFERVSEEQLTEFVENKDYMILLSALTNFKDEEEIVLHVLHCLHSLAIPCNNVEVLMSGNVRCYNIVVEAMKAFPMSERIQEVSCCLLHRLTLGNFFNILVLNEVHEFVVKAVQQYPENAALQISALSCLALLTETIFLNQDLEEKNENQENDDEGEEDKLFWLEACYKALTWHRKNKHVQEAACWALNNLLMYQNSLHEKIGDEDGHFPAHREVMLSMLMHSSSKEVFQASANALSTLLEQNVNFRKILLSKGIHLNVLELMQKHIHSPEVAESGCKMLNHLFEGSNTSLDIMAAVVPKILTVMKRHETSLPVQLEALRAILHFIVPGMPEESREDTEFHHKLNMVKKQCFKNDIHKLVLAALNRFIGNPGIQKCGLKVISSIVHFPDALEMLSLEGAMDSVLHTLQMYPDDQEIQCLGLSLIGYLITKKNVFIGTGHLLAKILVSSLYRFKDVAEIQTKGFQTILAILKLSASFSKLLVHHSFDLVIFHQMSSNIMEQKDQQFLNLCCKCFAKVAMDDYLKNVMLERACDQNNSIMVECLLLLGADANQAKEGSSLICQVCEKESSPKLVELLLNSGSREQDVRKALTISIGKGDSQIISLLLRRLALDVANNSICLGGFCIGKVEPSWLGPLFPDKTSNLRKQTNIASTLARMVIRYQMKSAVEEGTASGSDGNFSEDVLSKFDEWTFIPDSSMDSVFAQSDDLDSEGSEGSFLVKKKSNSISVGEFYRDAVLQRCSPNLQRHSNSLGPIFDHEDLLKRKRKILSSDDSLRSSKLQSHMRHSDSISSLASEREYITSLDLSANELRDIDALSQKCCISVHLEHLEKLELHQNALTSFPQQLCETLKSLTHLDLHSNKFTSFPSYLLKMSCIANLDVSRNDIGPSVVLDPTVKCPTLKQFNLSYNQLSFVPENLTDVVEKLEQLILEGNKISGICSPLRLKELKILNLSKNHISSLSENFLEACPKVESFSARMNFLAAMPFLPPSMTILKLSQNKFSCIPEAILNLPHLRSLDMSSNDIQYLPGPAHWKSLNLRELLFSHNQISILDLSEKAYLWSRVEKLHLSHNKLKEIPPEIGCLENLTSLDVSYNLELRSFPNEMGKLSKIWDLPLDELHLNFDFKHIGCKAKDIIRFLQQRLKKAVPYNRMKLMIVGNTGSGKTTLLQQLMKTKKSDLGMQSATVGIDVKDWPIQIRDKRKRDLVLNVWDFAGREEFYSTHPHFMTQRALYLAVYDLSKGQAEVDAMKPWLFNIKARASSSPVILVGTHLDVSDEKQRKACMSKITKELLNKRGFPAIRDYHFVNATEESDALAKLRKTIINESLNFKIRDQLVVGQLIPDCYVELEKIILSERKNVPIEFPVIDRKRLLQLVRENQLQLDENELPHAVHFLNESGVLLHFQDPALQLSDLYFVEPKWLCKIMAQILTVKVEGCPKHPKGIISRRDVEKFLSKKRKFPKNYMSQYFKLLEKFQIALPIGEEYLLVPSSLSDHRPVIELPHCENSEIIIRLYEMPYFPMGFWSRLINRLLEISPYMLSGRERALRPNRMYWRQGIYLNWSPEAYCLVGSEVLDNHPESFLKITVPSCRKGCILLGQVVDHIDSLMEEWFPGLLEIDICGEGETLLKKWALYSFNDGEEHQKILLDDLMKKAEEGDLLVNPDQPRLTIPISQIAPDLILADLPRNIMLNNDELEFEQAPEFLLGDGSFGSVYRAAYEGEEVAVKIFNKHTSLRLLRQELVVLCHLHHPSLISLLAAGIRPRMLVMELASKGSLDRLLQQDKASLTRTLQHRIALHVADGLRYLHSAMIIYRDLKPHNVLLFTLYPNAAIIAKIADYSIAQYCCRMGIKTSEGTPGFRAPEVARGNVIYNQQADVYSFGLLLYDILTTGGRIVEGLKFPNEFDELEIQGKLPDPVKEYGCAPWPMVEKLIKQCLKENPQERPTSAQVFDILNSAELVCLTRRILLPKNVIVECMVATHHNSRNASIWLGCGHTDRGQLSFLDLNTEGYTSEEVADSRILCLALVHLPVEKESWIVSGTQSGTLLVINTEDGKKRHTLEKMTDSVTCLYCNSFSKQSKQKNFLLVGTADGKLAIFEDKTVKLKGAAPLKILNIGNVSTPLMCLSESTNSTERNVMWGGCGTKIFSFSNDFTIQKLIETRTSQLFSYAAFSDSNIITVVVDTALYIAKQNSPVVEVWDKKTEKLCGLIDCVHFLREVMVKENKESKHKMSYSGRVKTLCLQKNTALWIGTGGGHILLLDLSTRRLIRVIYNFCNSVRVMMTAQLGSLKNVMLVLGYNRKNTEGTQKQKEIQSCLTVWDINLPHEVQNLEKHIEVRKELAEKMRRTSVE
Sequence of Leucine-rich repeat serine/threonine-protein kinase 2 (Homo sapiens, UniProt Q5S007) (Q5S007 whole entry, the tested form may be a part): as the sequence (Q5S007 whole entry G2019S, the tested form may be a part) above, with S2019G counted along it
Sequence of Mitogen-activated protein kinase 1 (Homo sapiens) (P28482 whole entry): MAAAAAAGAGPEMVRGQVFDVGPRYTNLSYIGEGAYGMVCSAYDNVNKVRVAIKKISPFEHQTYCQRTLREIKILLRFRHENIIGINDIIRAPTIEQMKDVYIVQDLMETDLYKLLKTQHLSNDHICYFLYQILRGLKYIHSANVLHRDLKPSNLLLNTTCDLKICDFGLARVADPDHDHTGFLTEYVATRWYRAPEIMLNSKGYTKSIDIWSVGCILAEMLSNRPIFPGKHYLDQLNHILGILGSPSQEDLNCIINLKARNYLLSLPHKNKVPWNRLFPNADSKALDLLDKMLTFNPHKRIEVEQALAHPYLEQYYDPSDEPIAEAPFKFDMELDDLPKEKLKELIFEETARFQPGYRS

SMILES: CC(C)Oc1ccc2[nH]nc(-c3ccnc(N4CCN(C)CC4)c3)c2c1
- IC50 [1]: 0.8 nM
- Ratio [2]: 0.6
- Ratio [3]: 1.7
- Papp (MDR1 (human)): 27 ×10⁻⁶ cm/s
- hepatocyte CLint at 1 µM [4]: 7 µL/min/1e6 cells
- hepatocyte CLint at 1 µM [5]: 36 µL/min/1e6 cells
- IC50 [6]: 52 nM

SMILES: COCCNc1cc(-c2n[nH]c3ccccc23)ccn1
- IC50 [1]: 98 nM

SMILES: c1cc(-c2n[nH]c3ccc(OC4CC4)cc23)cc(N2CCOCC2)n1
- IC50 [1]: 41 nM
- Ratio [2]: 0.3
- Ratio [3]: 0.3
- Papp (MDR1 (human)): 31 ×10⁻⁶ cm/s
- hepatocyte CLint at 1 µM [4]: 37 µL/min/1e6 cells
- hepatocyte CLint at 1 µM [5]: 32 µL/min/1e6 cells

SMILES: c1cc(-c2n[nH]c3ccc(C4CC4)cc23)cc(N2CCOCC2)n1
- IC50 [1]: 13 nM
- Ratio [2]: 0.2
- Ratio [3]: 0.1
- Papp (MDR1 (human)): 25 ×10⁻⁶ cm/s
- hepatocyte CLint at 1 µM [4]: 31 µL/min/1e6 cells
- hepatocyte CLint at 1 µM [5]: 52 µL/min/1e6 cells

SMILES: O=S(=O)(c1ccc2[nH]nc(-c3ccnc(N4CCOCC4)c3)c2c1)C1CC1
- Ratio [2]: 20
- Ratio [3]: 44
- Papp (MDR1 (human)): 35 ×10⁻⁶ cm/s
- hepatocyte CLint at 1 µM [4]: 7.3 µL/min/1e6 cells
- hepatocyte CLint at 1 µM [5]: 15 µL/min/1e6 cells

SMILES: c1cncc(-c2n[nH]c3ccccc23)c1
- IC50 [1]: 1230 nM

SMILES: CN(c1cccc(S(C)(=O)=O)c1)c1ccc2[nH]nc(-c3ccncc3)c2c1
- concentration (Cerebrospinal fluid): 36 nM
- Cp(f) (Plasma): 42 nM
- IC50 [7]: 44 nM

SMILES: CC1(Oc2ccc3[nH]nc(-c4cc(N5CCN(S(C)(=O)=O)CC5)ncn4)c3c2)CC1
- IC50 [1]: 2.2 nM
- Ratio [2]: 2.2
- Ratio [3]: 12
- Papp (MDR1 (human)): 30 ×10⁻⁶ cm/s
- hepatocyte CLint at 1 µM [5]: 10 µL/min/1e6 cells
- IC50 [6]: 7.6 nM

SMILES: CC(C)Oc1ccc2[nH]nc(-c3ccnc(N4C[C@@H](F)[C@H](F)C4)c3)c2c1
- IC50 [1]: 6.6 nM
- Ratio [2]: 0.4
- Ratio [3]: 0.7
- Papp (MDR1 (human)): 31 ×10⁻⁶ cm/s
- hepatocyte CLint at 1 µM [4]: 25 µL/min/1e6 cells
- hepatocyte CLint at 1 µM [5]: 39 µL/min/1e6 cells
- IC50 [8]: 128 nM
- IC50 [6]: 341 nM

SMILES: CC(C)Oc1ccc2[nH]nc(-c3cc(N4CCOCC4)ncn3)c2c1
- Ratio [2]: 0.6
- Ratio [3]: 0.4
- Papp (MDR1 (human)): 38 ×10⁻⁶ cm/s
- hepatocyte CLint at 1 µM [4]: 6 µL/min/1e6 cells
- hepatocyte CLint at 1 µM [5]: 13 µL/min/1e6 cells
- IC50 [6]: 41 nM

SMILES: COc1ccc2[nH]nc(-c3ccnc(N4CCOCC4)c3)c2c1
- IC50 [1]: 15 nM
- Ratio [2]: 0.2
- Ratio [3]: 0.4
- Papp (MDR1 (human)): 33 ×10⁻⁶ cm/s
- hepatocyte CLint at 1 µM [4]: 23 µL/min/1e6 cells
- hepatocyte CLint at 1 µM [5]: 28 µL/min/1e6 cells

SMILES: c1ccc2c(-c3ccnc(N4CCOCC4)c3)n[nH]c2c1
- IC50 [1]: 12 nM
- Ratio [2]: 0.3
- Ratio [3]: 0.2
- Papp (MDR1 (human)): 19 ×10⁻⁶ cm/s

SMILES: Cn1cc(-c2ccc3[nH]nc(-c4ccnc(N5CCOCC5)c4)c3c2)cn1
- Ratio [2]: 1.5
- Ratio [3]: 6.3
- Papp (MDR1 (human)): 38 ×10⁻⁶ cm/s
- hepatocyte CLint at 1 µM [4]: 7 µL/min/1e6 cells
- hepatocyte CLint at 1 µM [5]: 31 µL/min/1e6 cells

SMILES: CC(C)Oc1ccc2[nH]nc(-c3ccnc(N4CCC(n5cnnc5)CC4)c3)c2c1
- Ratio [2]: 40
- Ratio [3]: 41
- Papp (MDR1 (human)): 46 ×10⁻⁶ cm/s
- hepatocyte CLint at 1 µM [4]: 2 µL/min/1e6 cells
- hepatocyte CLint at 1 µM [5]: 19 µL/min/1e6 cells
- IC50 [8]: 69 nM
- IC50 [6]: 194 nM

SMILES: c1cnnc(-c2ccc3[nH]nc(-c4ccnc(N5CCOCC5)c4)c3c2)c1
- Ratio [2]: 16
- Ratio [3]: 38
- Papp (MDR1 (human)): 32 ×10⁻⁶ cm/s
- hepatocyte CLint at 1 µM [4]: 10 µL/min/1e6 cells
- hepatocyte CLint at 1 µM [5]: 6 µL/min/1e6 cells

SMILES: CC(C)Oc1ccc2[nH]nc(-c3ccnc(N4CCN(S(C)(=O)=O)CC4)c3)c2c1
- Ratio [2]: 0.4
- Ratio [3]: 0.6
- Papp (MDR1 (human)): 29 ×10⁻⁶ cm/s
- hepatocyte CLint at 1 µM [4]: 7 µL/min/1e6 cells
- hepatocyte CLint at 1 µM [5]: 32 µL/min/1e6 cells
- IC50 [8]: 14 nM
- IC50 [6]: 83 nM

SMILES: N#Cc1ccc2[nH]nc(-c3ccnc(N4CCOCC4)c3)c2c1
- IC50 [1]: 64 nM
- Ratio [2]: 0.7
- Ratio [3]: 1.3
- Papp (MDR1 (human)): 34 ×10⁻⁶ cm/s

SMILES: CC(C)Oc1ccc2[nH]nc(-c3ccnc(N4CCOCC4)c3)c2c1
- IC50 [1]: 0.7 nM
- Ratio [2]: 0.5
- Ratio [3]: 0.7
- Papp (MDR1 (human)): 30 ×10⁻⁶ cm/s
- hepatocyte CLint at 1 µM [4]: 22 µL/min/1e6 cells
- hepatocyte CLint at 1 µM [5]: 49 µL/min/1e6 cells
- inhibition [9]: 91%
- inhibition [10]: 41%
- IC50 [6]: 43 nM
- AUC(0-t) at 8 h [11]: 1 µM·h
- half-life [12]: 1 h

SMILES: CC1(Oc2ccc3[nH]nc(-c4cc(N5CCOCC5)ncn4)c3c2)CC1
- Papp (MDR1 (human)): 35 ×10⁻⁶ cm/s
- hepatocyte CLint at 1 µM [4]: 8 µL/min/1e6 cells
- hepatocyte CLint at 1 µM [5]: 18 µL/min/1e6 cells

SMILES: C[C@H]1CN(c2cc(-c3n[nH]c4ccc(OC5(C)CC5)cc34)ncn2)CCO1
- Ratio [2]: 0.5
- Ratio [3]: 0.5
- Papp (MDR1 (human)): 27 ×10⁻⁶ cm/s
- hepatocyte CLint at 1 µM [4]: 7 µL/min/1e6 cells
- hepatocyte CLint at 1 µM [5]: 26 µL/min/1e6 cells
- IC50 [8]: 76 nM
- IC50 [6]: 3.8 nM

SMILES: C[C@@H]1CN(c2cc(-c3n[nH]c4ccc(OC5(C)CC5)cc34)ncn2)CCO1
- IC50 [1]: 2 nM
- Ratio [2]: 0.3
- Ratio [3]: 0.4
- Papp (MDR1 (human)): 28 ×10⁻⁶ cm/s
- hepatocyte CLint at 1 µM [4]: 7 µL/min/1e6 cells
- hepatocyte CLint at 1 µM [5]: 15 µL/min/1e6 cells
- IC50 [8]: 13 nM
- IC50 [6]: 5 nM

SMILES: Nc1cc(-c2n[nH]c3ccc(Nc4ccccc4)cc23)ccn1
- IC50 [7]: 728 nM

SMILES: c1ccc2c(-c3ccncc3)n[nH]c2c1
- IC50 [1]: 904 nM

SMILES: c1ccc2c(-c3cncc(N4CCOCC4)c3)n[nH]c2c1
- IC50 [1]: 256 nM
- Ratio [2]: 0.4
- Ratio [3]: 0.5
- Papp (MDR1 (human)): 38 ×10⁻⁶ cm/s

SMILES: c1ccc2c(-c3cc(N4CCOCC4)ncn3)n[nH]c2c1
- hepatocyte CLint at 1 µM [4]: 9 µL/min/1e6 cells
- hepatocyte CLint at 1 µM [5]: 30 µL/min/1e6 cells

SMILES: CC(C)Oc1ccc2[nH]nc(-c3ccnc(N4CCN(C)C(=O)C4)c3)c2c1
- Ratio [2]: 3.2
- Ratio [3]: 15
- Papp (MDR1 (human)): 38 ×10⁻⁶ cm/s
- hepatocyte CLint at 1 µM [4]: 16 µL/min/1e6 cells
- hepatocyte CLint at 1 µM [5]: 38 µL/min/1e6 cells
- IC50 [8]: 91 nM
- IC50 [6]: 59 nM

SMILES: c1ccc(-c2n[nH]c3ccccc23)nc1
- IC50 [1]: 6190 nM
